According to ChEMBL document CHEMBL3045339, “Synthesis of benzoxazoles, benzothiazoles and benzimidazoles and evaluation of their antifungal, insecticidal and herbicidal activities” (1992):
In brackets after ≈: the same amount, converted by molar mass.

Experiments:
Assay type in all cases: functional
[1] = tested on: Persicaria hydropiper; assay: Herbicidal activity against Persicaria hydropiper assessed as disease control at 1000 ppm treated in soil during 15 to 20 days relative to control
[2] = tested on: Eleusine indica; assay: Herbicidal activity against Eleusine indica assessed as disease control at 1000 ppm treated in soil during 15 to 20 days relative to control
[3] = tested on: Echinochloa crus-galli; assay: Herbicidal activity against Echinochloa crus-galli (barnyard grass) assessed as disease control at 1000 ppm treated in soil during 15 to 20 days relative to control
[4] = tested on: Fusarium fujikuroi; assay: Antifungal activity against Fusarium fujikuroi after 7 days; design: concentration or dose not given beside the values
[5] = tested on: Xanthomonas axonopodis; assay: Antibacterial activity against Xanthomonas axonopodis after 7 days; design: concentration or dose not given beside the values
[6] = tested on: Pseudoperonospora cubensis; assay: Antifungal activity against Pseudoperonospora cubensis after 7 days; design: concentration or dose not given beside the values
[7] = tested on: Botrytis cinerea; assay: Antifungal activity against Botryotinia fuckeliana after 7 days; design: concentration or dose not given beside the values
[8] = tested on: Pyricularia oryzae; assay: Antifungal activity against Magnaporthe oryzae after 7 days; design: concentration or dose not given beside the values
[9] = tested on: Oryza sativa; assay: Herbicidal activity against Oryza sativa assessed as disease control at 1000 ppm treated in paddy field during 15 to 20 days relative to control
[10] = tested on: Cyperus compressus; assay: Herbicidal activity against Cyperus compressus assessed as disease control at 1000 ppm treated in paddy field during 15 to 20 days relative to control
[11] = tested on: Echinochloa crus-galli; assay: Herbicidal activity against Echinochloa crus-galli (barnyard grass) assessed as disease control at 1000 ppm treated in paddy field during 15 to 20 days relative to control
[12] = tested on: Chenopodium album; assay: Herbicidal activity against Chenopodium album assessed as disease control at 1000 ppm treated in foliage during 15 to 20 days relative to control
[13] = tested on: Amaranthus viridis; assay: Herbicidal activity against Amaranthus viridis assessed as disease control at 1000 ppm treated in foliage during 15 to 20 days relative to control
[14] = tested on: Persicaria hydropiper; assay: Herbicidal activity against Persicaria hydropiper assessed as disease control at 1000 ppm treated in foliage during 15 to 20 days relative to control
[15] = tested on: Eleusine indica; assay: Herbicidal activity against Eleusine indica assessed as disease control at 1000 ppm treated in foliage during 15 to 20 days relative to control
[16] = tested on: Echinochloa crus-galli; assay: Herbicidal activity against Echinochloa crus-galli (barnyard grass) assessed as disease control at 1000 ppm treated in foliage during 15 to 20 days relative to control
[17] = tested on: Amaranthus viridis; assay: Herbicidal activity against Amaranthus viridis assessed as disease control at 1000 ppm treated in soil during 15 to 20 days relative to control
[18] = tested on: Chenopodium album; assay: Herbicidal activity against Chenopodium album assessed as disease control at 1000 ppm treated in soil during 15 to 20 days relative to control
[19] = tested on: Bacillus subtilis; assay: Antibacterial activity against Bacillus subtilis after 48 hr
[20] = tested on: Escherichia coli; assay: Antibacterial activity against Escherichia coli after 48 hr
[21] = tested on: Pseudomonas aeruginosa; assay: Antibacterial activity against Pseudomonas aeruginosa after 48 hr

Row | SMILES | Activity [1] [%] | Activity [2] [%] | Activity [3] [%] | Activity [4] [%] | Activity [5] [%] | Activity [6] [%] | Activity [7] [%] | Activity [8] [%] | Activity [9] [%] | Activity [10] [%] | Activity [11] [%] | Activity [12] [%] | Activity [13] [%] | Activity [14] [%] | Activity [15] [%] | Activity [16] [%] | Activity [17] [%] | Activity [18] [%] | other results
1 | c1ccc2oc(-c3ccncc3)nc2c1 | <39 | <39 | <39 | 60 | <39 | <39 | 40 | <39 | <39 | <39 | 40 | <39 | <39 | <39 | <39 | <39 | <39 | <39 | 
2 | Cc1cccc2[nH]c(-c3ccccn3)nc12 | <39 | <39 | <39 | <39 | <39 | <39 | 60 | 40 | <39 | <39 | <39 | <39 | <39 | <39 | <39 | <39 | <39 | <39 | 
3 | CCOc1ccc2sc(-c3ccccn3)nc2c1 | <39 | <39 | <39 | <39 | <39 | <39 | <39 | <39 | <39 | 40 | 40 | 60 | 40 | <39 | <39 | <39 | <39 | <39 | 
4 | O=[N+]([O-])c1cccc2nc(-c3ccccn3)[nH]c12 | <39 | <39 | <39 | <39 | <39 | <39 | <39 | 40 | <39 | <39 | <39 | <39 | <39 | <39 | <39 | <39 | <39 | <39 | 
5 | c1ccc2nc(-c3nc4ccccc4o3)ccc2c1 | <39 | <39 | <39 | <39 | <39 | <39 | <39 | <39 | 40 | <39 | <39 | <39 | <39 | <39 | <39 | <39 | <39 | <39 | 
6 | Clc1ccc2sc(-c3ccccn3)nc2c1 | <39 | <39 | <39 | <39 | <39 | <39 | <39 | <39 | <39 | >80 | <39 | 40 | 60 | <39 | <39 | <39 | <39 | <39 | 
7 | CCOc1ccc2sc(-c3ccncc3)nc2c1 | <39 | <39 | <39 | <39 | <39 | <39 | <39 | <39 | <39 | >80 | <39 | <39 | <39 | <39 | <39 | <39 | <39 | <39 | 
8 | c1ccc(-c2nc3ccccc3o2)nc1 | <39 | <39 | <39 | <39 | <39 | <39 | <39 | <39 | <39 | 40 | <39 | <39 | <39 | <39 | <39 | <39 | <39 | <39 | 
9 | Cc1ccc2nc(-c3ccccn3)[nH]c2c1 | <39 | <39 | <39 | <39 | 40 | 60 | <39 | 60 | <39 | <39 | <39 | 60 | 40 | <39 | <39 | <39 | <39 | <39 | MIC [19]: 100 µg/mL (≈ 478 µM); MIC [20]: 50 µg/mL (≈ 239 µM)
10 | c1ccc2[nH]c(-c3ccncc3)nc2c1 |  |  |  |  |  |  |  |  |  |  |  |  |  |  |  |  |  |  | MIC [21]: 100 µg/mL (≈ 512 µM)
11 | COc1ccc2[nH]c(-c3ccncc3)nc2c1 | <39 | <39 | <39 | <39 | 60 | 40 | 60 | >80 | <39 | <39 | <39 | <39 | <39 | <39 | <39 | <39 | <39 | <39 | 
12 | c1ccc2oc(-c3nc4ccccc4s3)nc2c1 | <39 | <39 | <39 | <39 | <39 | <39 | <39 | <39 | <39 | <39 | <39 | <39 | <39 | <39 | <39 | <39 | <39 | <39 | 
13 | COc1ccc2sc(-c3ccncc3)nc2c1 | <39 | <39 | <39 | <39 | <39 | <39 | <39 | <39 | <39 | 60 | <39 | <39 | <39 | <39 | <39 | <39 | <39 | <39 | 
14 | c1ccc2nc(-c3nc4ccccc4[nH]3)ccc2c1 |  |  |  |  |  |  |  |  |  |  |  |  |  |  |  |  |  |  | MIC [21]: 100 µg/mL (≈ 408 µM)
15 | COc1ccc2sc(-c3ccccn3)nc2c1 | <39 | <39 | <39 | <39 | <39 | <39 | <39 | <39 | 40 | 60 | <39 | <39 | 40 | <39 | <39 | <39 | <39 | <39 | 
16 | c1ccc(-c2nc3ccccc3[nH]2)nc1 | <39 | <39 | <39 | <39 | 60 | >80 | 60 | <39 | <39 | <39 | <39 | <39 | <39 | <39 | <39 | <39 | <39 | <39 | MIC [19]: 100 µg/mL (≈ 512 µM); MIC [21]: 100 µg/mL (≈ 512 µM)
17 | c1ccc2nc(-c3nc4ccccc4s3)ccc2c1 | <39 | <39 | <39 | <39 | <39 | <39 | <39 | <39 | <39 | <39 | <39 | <39 | <39 | <39 | <39 | <39 | <39 | <39 | 
